Results taken from ChEMBL document CHEMBL4196009, “Novel vitexin-inspired scaffold against leukemia” (Eur J Med Chem, 2018).

The molecules below were run on SEM cells (assay: Antiproliferative activity against human SEM cells after 72 hrs by CelTiter-Glo assay). Conditions: not given.
Type: functional, cell-based

`COC(=O)c1cc(=O)c2cc(NC(=O)NCc3ccccc3)ccc2[nH]1` and `COC(=O)c1cc(=O)c2cc(NC(=O)Nc3ccc(F)c(Cl)c3)ccc2[nH]1` cannot be ordered by EC50: > 19.5 µM for the first, > 6.35 µM for the second.

`COC(=O)c1cc(=O)c2cc(NC(=O)Nc3ccc4c(c3)CCC4)ccc2[nH]1` and `COC(=O)c1cc(=O)c2cc(NC(=O)Nc3ccc(C(F)(F)F)cc3)ccc2[nH]1` cannot be ordered by EC50: > 24.1 µM for the first, > 6.35 µM for the second.

`COc1ccc(Oc2ccc(C(F)(F)F)cc2NC(=O)c2cc(=O)c3c(OC)cc(OC)cc3[nH]2)cc1` and `COc1cc(OC)c2c(=O)cc(C(=O)Nc3cccc(N4CCCC4)c3)[nH]c2c1` cannot be ordered by EC50: > 67.2 µM for the first, > 58.6 µM for the second.

First: COc1ccc(-c2cc(=O)c3c(OC)cc(OC)cc3n2Cc2ccccc2)cc1
Second: COc1ccc(-c2c(Br)c(=O)c3c(OC)cc(OC)cc3n2S(=O)(=O)c2ccc(OC)cc2)cc1
The EC50 of the first is higher: > 17.3 µM for the first, 1.9 µM for the second. The second is the more potent here.

`COC(=O)c1cc(=O)c2cc([N+](=O)[O-])ccc2[nH]1` and `COC(=O)c1cc(=O)c2cc(NC(=O)Nc3cc(F)cc(C(F)(F)F)c3)ccc2[nH]1` cannot be ordered by EC50: > 41.6 µM for the first, > 20.2 µM for the second.

`O=c1c(-c2ccc(O)cc2)coc2cc(O)cc(O)c12` [GENISTEIN] gave an EC50 of 59.3 µM.

Each molecule was assayed on UoC-B1 (assay: Antiproliferative activity against human UOCB1 cells after 72 hrs by CelTiter-Glo assay). Conditions: UoC-B1, 72 h.
Type: functional, cell-based

`COC(=O)c1cc(=O)c2cc(NC(=O)NCc3ccccc3)ccc2[nH]1` and `COC(=O)c1cc(=O)c2cc(NC(=O)Nc3ccc(F)c(Cl)c3)ccc2[nH]1` cannot be ordered by EC50: > 19.5 µM for the first, > 6.35 µM for the second.

`COC(=O)c1cc(=O)c2cc(NC(=O)Nc3ccc4c(c3)CCC4)ccc2[nH]1` and `COC(=O)c1cc(=O)c2cc(NC(=O)Nc3ccc(C(F)(F)F)cc3)ccc2[nH]1` cannot be ordered by EC50: > 24.1 µM for the first, > 6.35 µM for the second.

`COc1ccc(Oc2ccc(C(F)(F)F)cc2NC(=O)c2cc(=O)c3c(OC)cc(OC)cc3[nH]2)cc1` and `COc1cc(OC)c2c(=O)cc(C(=O)Nc3cccc(N4CCCC4)c3)[nH]c2c1` cannot be ordered by EC50: > 67.2 µM for the first, > 58.6 µM for the second.

`COc1ccc(-c2cc(=O)c3c(OC)cc(OC)cc3n2Cc2ccccc2)cc1` and `O=c1c(-c2ccc(O)cc2)coc2cc(O)cc(O)c12` [GENISTEIN] cannot be ordered by EC50: > 17.3 µM for the first, 35.7 µM for the second.

`COC(=O)c1cc(=O)c2cc([N+](=O)[O-])ccc2[nH]1` and `COC(=O)c1cc(=O)c2cc(NC(=O)Nc3cc(F)cc(C(F)(F)F)c3)ccc2[nH]1` cannot be ordered by EC50: > 41.6 µM for the first, > 20.2 µM for the second.

These molecules were tested on THLE-2 (assay: Antiproliferative activity against human THLE2 cells after 72 hrs by CelTiter-Glo assay). Conditions: THLE-2, 72 h.
Type: cell-based

In the case of `COc1ccc(-c2c(Br)c(=O)c3c(OC)cc(OC)cc3n2S(=O)(=O)c2ccc(OC)cc2)cc1`, the EC50 is reported as 69 µM.

What follows are molecules tested on BJ (assay: Antiproliferative activity against human BJ cells after 72 hrs by CelTiter-Glo assay). Conditions: not given.
Type: cell-based

`COC(=O)c1cc(=O)c2cc(NC(=O)NCc3ccccc3)ccc2[nH]1` and `COC(=O)c1cc(=O)c2cc(NC(=O)Nc3ccc(F)c(Cl)c3)ccc2[nH]1` cannot be ordered by EC50: > 19.5 µM for the first, > 12.6 µM for the second.

`COC(=O)c1cc(=O)c2cc(NC(=O)Nc3ccc4c(c3)CCC4)ccc2[nH]1` and `COC(=O)c1cc(=O)c2cc(NC(=O)Nc3ccc(C(F)(F)F)cc3)ccc2[nH]1` cannot be ordered by EC50: > 24.1 µM for the first, > 12.6 µM for the second.

`COc1ccc(Oc2ccc(C(F)(F)F)cc2NC(=O)c2cc(=O)c3c(OC)cc(OC)cc3[nH]2)cc1` and `COc1cc(OC)c2c(=O)cc(C(=O)Nc3cccc(N4CCCC4)c3)[nH]c2c1` cannot be ordered by EC50: > 67.2 µM for the first, > 58.6 µM for the second.

`COc1ccc(-c2cc(=O)c3c(OC)cc(OC)cc3n2Cc2ccccc2)cc1` and `COc1ccc(-c2c(Br)c(=O)c3c(OC)cc(OC)cc3n2S(=O)(=O)c2ccc(OC)cc2)cc1` cannot be ordered by EC50: > 34.5 µM for the first, 49.7 µM for the second.

`COC(=O)c1cc(=O)c2cc([N+](=O)[O-])ccc2[nH]1` and `COC(=O)c1cc(=O)c2cc(NC(=O)Nc3cc(F)cc(C(F)(F)F)c3)ccc2[nH]1` cannot be ordered by EC50: > 82.8 µM for the first, > 40.2 µM for the second.

For `O=c1c(-c2ccc(O)cc2)coc2cc(O)cc(O)c12` [GENISTEIN], the EC50 was > 86.2 µM.

Each molecule was assayed on MDA-MB-231 (assay: Cell cycle arrest in human MDA-MB-231 cells assessed as accumulation at G0/G1 phase at 20 uM after 24 hrs by propidium iodide staining-based flow cytometry (reference value: 70.47%)). Conditions: not given.
Type: functional

For `COc1ccc(-c2c(Br)c(=O)c3c(OC)cc(OC)cc3n2S(=O)(=O)c2ccc(OC)cc2)cc1`, the Activity was 70.02%.

The molecules below were run on HepG2 (assay: Antiproliferative activity against human HepG2 cells after 72 hrs by CelTiter-Glo assay). Conditions: HepG2, 72 h.
Type: functional, cell-based

`COC(=O)c1cc(=O)c2cc(NC(=O)NCc3ccccc3)ccc2[nH]1` and `COC(=O)c1cc(=O)c2cc(NC(=O)Nc3ccc(F)c(Cl)c3)ccc2[nH]1` cannot be ordered by EC50: > 19.5 µM for the first, > 6.35 µM for the second.

`COC(=O)c1cc(=O)c2cc(NC(=O)Nc3ccc4c(c3)CCC4)ccc2[nH]1` and `COC(=O)c1cc(=O)c2cc(NC(=O)Nc3ccc(C(F)(F)F)cc3)ccc2[nH]1` cannot be ordered by EC50: > 24.1 µM for the first, > 6.35 µM for the second.

Going from `COc1ccc(Oc2ccc(C(F)(F)F)cc2NC(=O)c2cc(=O)c3c(OC)cc(OC)cc3[nH]2)cc1` to `COc1cc(OC)c2c(=O)cc(C(=O)Nc3cccc(N4CCCC4)c3)[nH]c2c1`, the EC50 rises from 5.3 µM to > 58.6 µM.

`COc1ccc(-c2cc(=O)c3c(OC)cc(OC)cc3n2Cc2ccccc2)cc1` and `COc1ccc(-c2c(Br)c(=O)c3c(OC)cc(OC)cc3n2S(=O)(=O)c2ccc(OC)cc2)cc1` cannot be ordered by EC50: > 17.3 µM for the first, > 20 µM for the second.

`COC(=O)c1cc(=O)c2cc([N+](=O)[O-])ccc2[nH]1` and `COC(=O)c1cc(=O)c2cc(NC(=O)Nc3cc(F)cc(C(F)(F)F)c3)ccc2[nH]1` cannot be ordered by EC50: > 41.6 µM for the first, > 20.2 µM for the second.

With `O=c1c(-c2ccc(O)cc2)coc2cc(O)cc(O)c12` [GENISTEIN] the EC50 was 67.7 µM.

These molecules were tested on SUP-B15 (assay: Antiproliferative activity against human SUP-B15 cells after 72 hrs by CelTiter-Glo assay). Conditions: SUP-B15, 72 h.
Type: functional, cell-based

`COC(=O)c1cc(=O)c2cc(NC(=O)NCc3ccccc3)ccc2[nH]1` and `COC(=O)c1cc(=O)c2cc(NC(=O)Nc3ccc(F)c(Cl)c3)ccc2[nH]1` cannot be ordered by EC50: > 19.5 µM for the first, > 12.6 µM for the second.

Compared with `COC(=O)c1cc(=O)c2cc(NC(=O)Nc3ccc4c(c3)CCC4)ccc2[nH]1`, `COC(=O)c1cc(=O)c2cc(NC(=O)Nc3ccc(C(F)(F)F)cc3)ccc2[nH]1` is lower in EC50: > 24.1 µM for the first, 3.27 µM for the second.

`COc1ccc(Oc2ccc(C(F)(F)F)cc2NC(=O)c2cc(=O)c3c(OC)cc(OC)cc3[nH]2)cc1` and `COc1cc(OC)c2c(=O)cc(C(=O)Nc3cccc(N4CCCC4)c3)[nH]c2c1` cannot be ordered by EC50: > 67.2 µM for the first, > 58.6 µM for the second.

Going from `COc1ccc(-c2cc(=O)c3c(OC)cc(OC)cc3n2Cc2ccccc2)cc1` to `COc1ccc(-c2c(Br)c(=O)c3c(OC)cc(OC)cc3n2S(=O)(=O)c2ccc(OC)cc2)cc1`, the EC50 falls from > 34.5 µM to 2.92 µM.

`COC(=O)c1cc(=O)c2cc([N+](=O)[O-])ccc2[nH]1` and `COC(=O)c1cc(=O)c2cc(NC(=O)Nc3cc(F)cc(C(F)(F)F)c3)ccc2[nH]1` cannot be ordered by EC50: 76.5 µM for the first, > 40.2 µM for the second.

With `O=c1c(-c2ccc(O)cc2)coc2cc(O)cc(O)c12` [GENISTEIN] the EC50 was > 86.2 µM.

These molecules were tested on KOPN-8 (assay: Antiproliferative activity against human KOPN8 cells after 72 hrs by CelTiter-Glo assay). Conditions: KOPN-8, 72 h.
Type: functional, cell-based

`COC(=O)c1cc(=O)c2cc(NC(=O)NCc3ccccc3)ccc2[nH]1` and `COC(=O)c1cc(=O)c2cc(NC(=O)Nc3ccc(F)c(Cl)c3)ccc2[nH]1` cannot be ordered by EC50: > 19.5 µM for the first, > 6.35 µM for the second.

`COC(=O)c1cc(=O)c2cc(NC(=O)Nc3ccc4c(c3)CCC4)ccc2[nH]1` and `COC(=O)c1cc(=O)c2cc(NC(=O)Nc3ccc(C(F)(F)F)cc3)ccc2[nH]1` cannot be ordered by EC50: > 24.1 µM for the first, > 6.35 µM for the second.

`COc1ccc(Oc2ccc(C(F)(F)F)cc2NC(=O)c2cc(=O)c3c(OC)cc(OC)cc3[nH]2)cc1` and `COc1cc(OC)c2c(=O)cc(C(=O)Nc3cccc(N4CCCC4)c3)[nH]c2c1` cannot be ordered by EC50: > 67.2 µM for the first, > 58.6 µM for the second.

First: COc1ccc(-c2cc(=O)c3c(OC)cc(OC)cc3n2Cc2ccccc2)cc1
Second: COc1ccc(-c2c(Br)c(=O)c3c(OC)cc(OC)cc3n2S(=O)(=O)c2ccc(OC)cc2)cc1
The EC50 of the first is higher: > 17.3 µM for the first, 2.58 µM for the second.

`COC(=O)c1cc(=O)c2cc([N+](=O)[O-])ccc2[nH]1` and `COC(=O)c1cc(=O)c2cc(NC(=O)Nc3cc(F)cc(C(F)(F)F)c3)ccc2[nH]1` cannot be ordered by EC50: > 41.6 µM for the first, > 20.2 µM for the second.

`O=c1c(-c2ccc(O)cc2)coc2cc(O)cc(O)c12` [GENISTEIN] was tested, and the EC50 was > 86.2 µM.

What follows are molecules tested on MDA-MB-231 (assay: Cell cycle arrest in human MDA-MB-231 cells assessed as accumulation at S phase at 20 uM after 24 hrs by propidium iodide staining-based flow cytometry (reference value: 20.15%)). Conditions: not given.
Type: functional

With `COc1ccc(-c2c(Br)c(=O)c3c(OC)cc(OC)cc3n2S(=O)(=O)c2ccc(OC)cc2)cc1` the Activity was 18.2%.

Each molecule was assayed on MDA-MB-231 (assay: Cell cycle arrest in human MDA-MB-231 cells assessed as accumulation at G2/M phase at 20 uM after 24 hrs by propidium iodide staining-based flow cytometry (reference value: 9.38%)). Conditions: not given.
Type: functional

With `COc1ccc(-c2c(Br)c(=O)c3c(OC)cc(OC)cc3n2S(=O)(=O)c2ccc(OC)cc2)cc1` the Activity was 11.79%.
